According to patent US20120252865A1, “CARBAMATE DERIVATIVES IN PARTICULAR FOR THE TREATMENT OF NEUROLOGICAL DISORDERS” (SIGMA-TAU INDUSTRIE FARMACEUTICHE RIUNITE S.P.A., priority 2009, published 2012):

Columns and labels:
[1] = molecular target: T1, fatty acid amide hydrolase (FAAH, EC 3.5.1.4) (Mus musculus, UniProt O08914); assay: FAAH assay: release of [1-14C]AA from [1-14C]AnNH by RP-HPLC; format: biochemical; conditions: mouse brain homogenate; for IC50: 37° C., 15 min, pH 9.0; for Ki: Lineweaver-Burk analysis
T1 construct: The reaction was initiated by the addition of mouse brain homogenate (40 μg); from tissue; host or cells: mouse brain homogenate
T1 sequence (O08914 1-579): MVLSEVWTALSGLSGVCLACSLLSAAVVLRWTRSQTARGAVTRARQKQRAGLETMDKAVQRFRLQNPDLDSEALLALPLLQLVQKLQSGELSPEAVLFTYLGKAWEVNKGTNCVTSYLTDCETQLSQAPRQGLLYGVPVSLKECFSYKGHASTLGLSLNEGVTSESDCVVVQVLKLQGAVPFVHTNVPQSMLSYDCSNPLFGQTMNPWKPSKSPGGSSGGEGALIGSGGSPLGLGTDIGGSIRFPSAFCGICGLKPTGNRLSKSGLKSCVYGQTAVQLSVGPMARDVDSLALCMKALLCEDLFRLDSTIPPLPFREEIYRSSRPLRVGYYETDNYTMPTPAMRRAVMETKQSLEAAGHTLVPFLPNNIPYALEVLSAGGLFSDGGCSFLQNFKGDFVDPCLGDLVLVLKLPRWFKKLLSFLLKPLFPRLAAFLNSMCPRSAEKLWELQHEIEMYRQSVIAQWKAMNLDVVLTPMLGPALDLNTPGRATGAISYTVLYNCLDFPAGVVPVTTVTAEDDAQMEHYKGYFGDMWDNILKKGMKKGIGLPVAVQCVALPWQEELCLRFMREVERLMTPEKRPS
Method: The compounds of the present invention show affinity and inhibit the enzymatic activity of the fatty acid amide hydrolase enzyme.
The assay of FAAH (EC 3.5.1.4) was performed by measuring the release of [1-^14C]AA from [1-^14C]AnNH (52 mCi/mmol), using RP-HPLC. Also [^3H]AnNH (205 Ci/mmol) could be used as substrate, measuring the release of [^3H]AA under the same experimental conditions described below for [1-^14C]AnNH. Compounds of the invention, at various concentrations, were added in 200 μl hydrolase assay buffer (50 mM Tris-HCl, pH 9.0), in 2-ml Eppendorf tubes, 20 min before adding [1-^14C]AnNH2, up to a concentration of 10 μM. The reaction was initiated by the addition of mouse brain homogenate (40 μg), and after incubation at 37° C. for 15 min it was stopped by the addition of 800 μl ice-cold methanol/chloroform (2:1, v/v) with vortexing. This mixture was allowed to stand at room temperature for 30 min, then 240 μl chloroform and 240 μl water were added with vortexing. After 10 min at room temperature, the mixture was centrifuged at 3000 g for 5 min, the upper aqueous layer was removed by suction and the lower organic phase was dried by spinning the samples in a DNA MINI speedvac (Heto-Holten, Denmark), at 100 mbar and 30° C. for 30 min. The residue was dissolved into 50 μl methanol and subjected to RP-HPLC analysis for AA quantitation, as detailed below. FAAH specific activity was expressed as pmol AA released/min/mg protein. Kinetic studies were performed by Lineweaver-Burk analysis, using [1-^14C]AnNH, [1-^14C]ODNHEtOH, or [1-^14C]ODNH2 in the concentration range 0-12 μM. Fitting of the experimental points by a linear regression programme (Kaleidagraph 3.0) yielded straight lines with r values >0.97.

[2] = tested on: mechanical hyperalgesia; assay: Paw withdrawal test for mechanical hyperalgesia (Randall-Selitto analgesimeter); format: in vivo; conditions: rat; for analgesic activity (nociceptive threshold, paw withdrawal): acute oral treatment, 30 mg/kg (FIG. 1)
Method: The paw withdrawal test was used to assess mechanical hyperalgesia. The nociceptive threshold, expressed in grams, was measured by applying increasing pressure to the left and right hind paws using a Randall-Selitto analgesimeter (Ugo Basile, Varese, Italy). The parameter used to quantify the nociceptive threshold was defined as the pressure (grams) at which the rat withdrew its paw. Rats were habituated to the testing procedures and handling by the investigator in the week prior to the experiment.
Dose response experiments at 10, 30 and 100 mg/kg were also conducted with ST4068, ST3911 and ST3913.

[3] = molecular target: CB1R (Homo sapiens, UniProt P21554); assay: Selectivity profile: CB1R; format: binding; conditions: tested at a multiple of the FAAH IC50
Method: (§1) The compounds of the present invention were also evaluated with regard to their selectivity profile against the following targets: AMT, NAPE-PLD, MAGL, DAGL, CB1/CB2 and TRPV1 according to the procedures described in Maccarrone M., et al., J. Biol. Chem., 2000, 275, 13484, Fezza F., et al., Anal Biochem., 2005, 339, 113, Dinh T. P., et al., 2002, Proc. Natl. Acad. Sci. 99, 10819, Bisogno T., et al., 2003, J. Cell Biol., 163, 463, Maccarrone M., et al., J. Biol. Chem., 2000, 275, 31938, Ross R. A., et al., Br. J. Pharmacol., 2001, 132, 631.

[4] = molecular target: CB2R (Homo sapiens, UniProt P34972); assay: Selectivity profile: CB2R; format: binding; conditions: tested at a multiple of the FAAH IC50
Method: as §1

[5] = tested on: TRPV1; assay: Selectivity profile: TRPV1; format: binding; conditions: tested at a multiple of the FAAH IC50
Method: as §1

[6] = molecular target: NAPE-PLD (Homo sapiens, UniProt Q6IQ20); assay: Selectivity profile: NAPE-PLD; format: biochemical; conditions: tested at a multiple of the FAAH IC50
Method: as §1

[7] = tested on: AMT; assay: Selectivity profile: AMT; format: cell-based
Method: as §1

[8] = tested on: DAGL; assay: Selectivity profile: DAGL; format: biochemical; conditions: tested at a multiple of the FAAH IC50
Method: as §1

[9] = molecular target: T2, MAGL (Homo sapiens, UniProt Q99685); assay: Selectivity profile: MAGL; format: biochemical; conditions: tested at a multiple of the FAAH IC50
T2 sequence (Q99685 1-303): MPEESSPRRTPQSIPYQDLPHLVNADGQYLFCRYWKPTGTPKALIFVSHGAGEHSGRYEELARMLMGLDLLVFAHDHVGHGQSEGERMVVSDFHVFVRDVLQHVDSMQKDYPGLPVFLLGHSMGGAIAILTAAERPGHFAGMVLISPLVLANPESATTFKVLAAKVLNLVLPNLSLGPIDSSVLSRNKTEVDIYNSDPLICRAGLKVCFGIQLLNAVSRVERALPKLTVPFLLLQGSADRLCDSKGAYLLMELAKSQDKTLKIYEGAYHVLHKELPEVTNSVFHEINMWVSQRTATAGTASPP
Method: as §1

[10] = 100 mg/kg, compared with 30 mg/kg (FIGS. 2, 3 and 4)

Sequence of NAPE-PLD (Q6IQ20 whole entry, species assumed): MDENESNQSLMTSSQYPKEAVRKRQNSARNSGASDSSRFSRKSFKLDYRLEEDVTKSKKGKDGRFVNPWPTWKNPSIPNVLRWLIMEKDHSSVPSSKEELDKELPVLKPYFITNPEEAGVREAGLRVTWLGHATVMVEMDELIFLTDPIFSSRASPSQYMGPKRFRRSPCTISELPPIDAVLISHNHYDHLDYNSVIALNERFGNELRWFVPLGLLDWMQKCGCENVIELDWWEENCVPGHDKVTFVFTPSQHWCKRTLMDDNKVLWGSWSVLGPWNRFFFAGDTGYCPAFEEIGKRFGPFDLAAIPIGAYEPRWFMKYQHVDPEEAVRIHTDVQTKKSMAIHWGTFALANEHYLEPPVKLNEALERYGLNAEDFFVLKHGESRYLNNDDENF
Sequence of CB2R (P34972 whole entry): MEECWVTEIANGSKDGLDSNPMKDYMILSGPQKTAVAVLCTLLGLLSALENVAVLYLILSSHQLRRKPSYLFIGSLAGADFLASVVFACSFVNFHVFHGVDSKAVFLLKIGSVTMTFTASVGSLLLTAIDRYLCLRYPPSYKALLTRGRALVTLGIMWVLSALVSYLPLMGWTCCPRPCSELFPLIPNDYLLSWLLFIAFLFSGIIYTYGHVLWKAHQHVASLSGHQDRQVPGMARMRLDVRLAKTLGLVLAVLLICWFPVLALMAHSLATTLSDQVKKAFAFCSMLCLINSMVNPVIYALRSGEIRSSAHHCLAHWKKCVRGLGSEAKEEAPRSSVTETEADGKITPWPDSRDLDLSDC
Sequence of CB1R (P21554 whole entry): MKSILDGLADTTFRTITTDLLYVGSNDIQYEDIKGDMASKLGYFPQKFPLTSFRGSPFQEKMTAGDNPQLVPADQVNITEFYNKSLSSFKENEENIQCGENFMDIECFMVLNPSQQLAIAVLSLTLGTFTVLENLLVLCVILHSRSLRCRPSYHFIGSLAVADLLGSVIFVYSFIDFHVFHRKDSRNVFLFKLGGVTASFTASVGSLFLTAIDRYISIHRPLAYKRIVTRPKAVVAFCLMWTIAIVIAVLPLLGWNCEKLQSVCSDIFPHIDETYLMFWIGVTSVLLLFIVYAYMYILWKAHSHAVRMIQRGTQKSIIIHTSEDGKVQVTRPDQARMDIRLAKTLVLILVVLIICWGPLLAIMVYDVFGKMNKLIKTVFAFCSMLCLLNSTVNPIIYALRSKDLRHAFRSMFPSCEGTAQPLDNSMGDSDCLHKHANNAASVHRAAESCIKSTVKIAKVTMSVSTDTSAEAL

Compound `CCCCNC(=O)Oc1cccc(-c2oc(C)cc2C(N)=O)c1` [Example 5, butyl-carbamic acid 3-(3-carbamoyl-5-methyl-furan-2-yl)-phenyl ester] has an IC50 [1] of 500 to 5000 nM and a Ki [1] of 100 to 500 nM.
For `Cc1cc(C(N)=O)c(-c2cccc(OC(=O)NC3CCCCC3)c2)o1` [Example 13, cyclohexyl-carbamic acid 3-(3-carbamoyl-5-methyl-furan-2-yl)-phenyl ester], the IC50 [1] was 100 to 500 nM.
With `NC(=O)c1ccn(-c2cccc(OC(=O)NC3CCCCC3)c2)c1` [Example 3, cyclohexyl-carbamic acid 3-(3-carbamoyl-pyrrol-1-yl)-phenyl ester] the IC50 [1] was 100 to 500 nM and the Ki [1] was 10 to 100 nM.
Work on `Cc1oc(-c2cccc(OC(=O)NC3CCCCC3)c2)cc1C(N)=O` [Example 8, cyclohexyl-carbamic acid 3-(4-carbamoyl-5-methyl-furan-2-yl)-phenyl ester] yielded an IC50 [1] of 100 to 500 nM.
`C#CCCCCCCCCCOC(=O)c1ccn(-c2cccc(OC(=O)NCCCC)c2)c1` [Example 11, 1-(3-butylcarbamoyloxy-phenyl)-1H-pyrrole-3-carboxylic acid undec-10-ynyl ester] showed an IC50 [1] of 100 to 500 nM.
`CCCCNC(=O)Oc1cccc(-n2ccc(C(N)=O)c2)c1` [Example 1, butyl-carbamic acid 3-(3-carbamoyl-pyrrol-1-yl)-phenyl ester] gave an IC50 [1] of 100 to 500 nM and a Ki [1] of 10 to 100 nM.
In the case of `C#CCCCCCCCCCNC(=O)Oc1cccc(-n2ccc(C(N)=O)c2)c1` [Example 2, undec-10-ynyl-carbamic acid 3-(3-carbamoyl-pyrrol-1-yl)-phenyl ester], the IC50 [1] is reported as < 10 nM, the Ki [1] is reported as < 10 nM and the “analgesic activity, dose response” value ([2]; 30 mg/kg (FIGS. 2, 3 and 4)) is reported as “did exert analgesic activity”. The “analgesic activity, dose response” value [2, 10] was “higher effect” and the “analgesic activity (nociceptive threshold, paw withdrawal)” value [2] was “significant analgesic activity”.
With `NC(=O)c1ccn(-c2cccc(OC(=O)NCCCCCCc3ccccc3)c2)c1` [Example 4, (6-phenyl-hexyl)-carbamic acid 3-(3-carbamoyl-pyrrol-1-yl)-phenyl ester] the IC50 [1] was < 10 nM, the Ki [1] was < 10 nM and the “inhibitory activity on CB1R” value [3] was “−−−− (1000 times [IC50] with an inhibitory activity on the target <60%)”. For the same compound, the “inhibitory activity on CB2R” value [4] was “−−−− (1000 times [IC50] with an inhibitory activity on the target <60%)”, the “inhibitory activity on TRPV1” value [5] was “−−−− (1000 times [IC50] with an inhibitory activity on the target <60%)” and the “inhibitory activity on NAPE-PLD” value [6] was “−−−− (1000 times [IC50] with an inhibitory activity on the target <60%)”. For the same compound, the “AMT, % @ 1 μM” value [7] was 80% @ 1 μM, the “inhibitory activity on DAGL” value [8] was “−−−− (1000 times [IC50] with an inhibitory activity on the target <60%)” and the “inhibitory activity on MAGL” value [9] was “−−−− (1000 times [IC50] with an inhibitory activity on the target <60%)”. The “analgesic activity, dose response” value ([2]; 30 mg/kg (FIGS. 2, 3 and 4)) was “did exert analgesic activity”, the “analgesic activity, dose response” value [2, 10] was “higher effect” and the “analgesic activity (nociceptive threshold, paw withdrawal)” value [2] was “significant analgesic activity”.
Work on `Cc1cc(C(N)=O)c(-c2cccc(OC(=O)NC3CCCCC3)c2)s1` [Example 14, cyclohexyl-carbamic acid 3-(3-carbamoyl-5-methyl-thiophen-2-yl)-phenylester] yielded an IC50 [1] of 100 to 500 nM.
For `CCCCNC(=O)Oc1cccc(-c2oc(C)cc2C(=O)OCC)c1` [Example 10, 2-(3-butylcarbamoyloxy-phenyl)-5-methyl-furan-3-carboxylic acid ethyl ester], the IC50 [1] was 100 to 500 nM.
`Cc1oc(-c2cccc(OC(=O)NCCCCCCc3ccccc3)c2)cc1C(N)=O` [Example 9, (6-phenyl-hexyl)-carbamic acid 3-(4-carbamoyl-5-methyl-furan-2-yl)-phenyl ester] was tested, and the IC50 [1] was 10 to 100 nM, the Ki [1] was < 10 nM and the “inhibitory activity on CB1R” value [3] was “−−−− (1000 times [IC50] with an inhibitory activity on the target <60%)”. The “inhibitory activity on CB2R” value [4] was “−−−− (1000 times [IC50] with an inhibitory activity on the target <60%)”, the “inhibitory activity on TRPV1” value [5] was “−−−− (1000 times [IC50] with an inhibitory activity on the target <60%)” and the “inhibitory activity on NAPE-PLD” value [6] was “−−−− (1000 times [IC50] with an inhibitory activity on the target <60%)”. For the same compound, the “AMT, % @ 1 μM” value [7] was 80% @ 1 μM, the “inhibitory activity on DAGL” value [8] was “−−−− (1000 times [IC50] with an inhibitory activity on the target <60%)” and the “inhibitory activity on MAGL” value [9] was “−−−− (1000 times [IC50] with an inhibitory activity on the target <60%)”.
For `Cc1cc(C(N)=O)c(-c2cccc(OC(=O)NCCCCCCc3ccccc3)c2)s1` [Example 7, (6-phenyl-hexyl)-carbamic acid 3-(3-carbamoyl-5-methyl-thiophen-2-yl)-phenyl ester], the IC50 [1] was < 10 nM, the Ki [1] was < 10 nM and the “inhibitory activity on CB1R” value [3] was “−−−− (1000 times [IC50] with an inhibitory activity on the target <60%)”. The “inhibitory activity on CB2R” value [4] was “−−−− (1000 times [IC50] with an inhibitory activity on the target <60%)”, the “inhibitory activity on NAPE-PLD” value [6] was “−−−− (1000 times [IC50] with an inhibitory activity on the target <60%)” and the “AMT, % @ 1 μM” value [7] was 60% @ 1 μM. The “inhibitory activity on MAGL” value [9] was “−−−− (1000 times [IC50] with an inhibitory activity on the target <60%)”.
Compound `CCCCNC(=O)Oc1cccc(-n2ccc(C(=O)OCCCCCCc3ccccc3)c2)c1` [Example 12, 1-(3-butylcarbamoyloxy-phenyl)-1H-pyrrole-3-carboxylic acid 6-phenyl-hexyl ester] has an IC50 [1] of 100 to 500 nM.
With `Cc1cc(C(N)=O)c(-c2cccc(OC(=O)NCCCCCCc3ccccc3)c2)o1` [Example 6, (6-phenyl-hexyl)-carbamic acid 3-(3-carbamoyl-5-methyl-furan-2-yl)-phenyl ester] the IC50 [1] was < 10 nM, the Ki [1] was < 10 nM and the “analgesic activity, dose response” value ([2]; 30 mg/kg (FIGS. 2, 3 and 4)) was “did exert analgesic activity”. The “analgesic activity, dose response” value [2, 10] was “higher effect” and the “analgesic activity (nociceptive threshold, paw withdrawal)” value [2] was “significant analgesic activity”.
